Drawing on US6239131A, “1,5 Benzodiazepine derivatives” (Zeria Pharmaceutical Co., Ltd., priority 1996, dated 2001), this text covers Ki and inhibition in vivo for 24 compounds.

What is called Ki is the equilibrium dissociation constant of an inhibitor or competing ligand from its target.

One experiment deals with T1, CCK-B receptors (Cavia porcellus, UniProt H0VZC5).
T1 construct: Cerebral cortices were removed from Hartley-strain guinea pigs, the cerebral cortices were homogenized; from tissue; host or cells: cerebral cortex of Hartley-strain guinea pigs, crude membrane pellet
T1 sequence (H0VZC5 1-426): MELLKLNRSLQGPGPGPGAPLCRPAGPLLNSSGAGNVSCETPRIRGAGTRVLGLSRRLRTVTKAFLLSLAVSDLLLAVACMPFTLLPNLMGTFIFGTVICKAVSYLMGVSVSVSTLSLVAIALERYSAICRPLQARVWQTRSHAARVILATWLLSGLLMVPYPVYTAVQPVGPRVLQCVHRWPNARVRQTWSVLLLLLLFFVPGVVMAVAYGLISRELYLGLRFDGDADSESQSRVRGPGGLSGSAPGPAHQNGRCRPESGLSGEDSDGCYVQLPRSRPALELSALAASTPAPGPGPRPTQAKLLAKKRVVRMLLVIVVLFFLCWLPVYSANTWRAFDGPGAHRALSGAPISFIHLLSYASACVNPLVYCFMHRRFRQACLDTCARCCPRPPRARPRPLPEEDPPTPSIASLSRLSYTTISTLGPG
Description: Measurement of Binding Affinity for CCK-B Receptors. On the set-up: species or system Hartley-strain guinea pig. Conditions: inhibition of specific [3H]CCK-8 (1.0 nM) binding; guinea pig cerebral cortex; 25° C., 2 hours; pH 6.5; read-out: Ki (CCK-B receptors).

The test system of experiment [1] is pentagastrin-stimulated acid secretion. Description: Measurement of Inhibition of Pentagastrin-stimulated Acid Secretion. It counts as in vivo, male Sprague-Dawley (SD)-strain rats. Conditions: intraduodenal. The procedure: Male Sprague-Dawley (SD)-strain rats were used. Each rat was operated to ligate the pylorus, and equip with a duodenal catheter and gastric fistula under a ether anesthesia. After the operation, each rat was placed in a Bollman-type cage and continuously infused pentagastrin (15 μg/kg/hr) through the tail vein. Test compounds were suspended in 0.5% aqueous sodium carboxymethylcellulose (which hereinafter be abbreviated as "vehicle"). Vehicle or test compound was administered through the intraduodenal catheter 1 hour after the beginning of pentagastrin infusion. Acidity of the collected gastric juice was measured by an automatic titillation device. Acid output was determined by multiplying the volume by the acidity of gastric juice. […] [formula]

The mark [2] stands for this setting: rat, acid output from 1 to 4 hours after administration, pentagastrin 15 μg/kg/hr.

Description for CCK-B receptors: Cerebral cortices were removed from Hartley-strain guinea pigs, the cerebral cortices were homogenized in 50 volumes of 50 mM Tris-HCl buffer (pH7.4) and centrifuged at 50000×g for 10 minutes. The Tris-HCl buffer was added to the pellet and recentrifuged as above two times. The final pellet was rehomogenized in 10 mM HEPES buffer (pH 6.5, which hereinafter be abbreviated as "solvent") containing 5 mM MgCl2, 1 mM EGTA, 0.25 mg/ml bacitracin and 130 mM NaCl, and used as the receptor preparation.
Binding assay was measured as follows. Fifty μl of [^3 H]CCK-8 (at the final concentration of 1.0 nM) and 900 μl of the receptor preparation (800 μg protein/tube) were added to 50 μl of either solvent, CCK-8 (1 μM) or a test compound. These ware reacted at 25° C. for 2 hours. After the reaction, the mixture was filtrated through Whatman GF/B filter presoaked in 0.1% BSA. The filter was washed with 3 ml of ice-cold 50 mM Tris-HCl buffer (pH 7.4) four times, immediately after the filtration. The filter was soaked in the ACS-II scintillation cocktail for a day and radioactivity was measured using a liquid scintillation counter. Non-specific binding was defined as the radioactivity in the presence of 1 μM CCK-8. Specific binding was defined as the difference between total binding (used solvent without CCK-8) and non-specific binding. Inhibitor dissociation constant (Ki) of each test compound was determined from the inhibition of specific [^3 H]CCK-8 binding.

As to `Cc1cccc(NC(=O)NC2CN(C(=O)C(C)(C)C)c3ccccc3N(CC(=O)c3ccccc3C)C2=O)c1` (stereo not drawn) [Example 1, 1-[1-(2-toluoylmethyl)-2-oxo-5-pivaloyl-1,3,4,5-tetrahydro-2H-1,5-benzodiazepin-3-yl]-3-(3-methylphenyl)urea], at CCK-B receptors, the inhibitory constant (Ki) came out at 6.47 nM. The inhibition in vivo at 30 mg/kg in experiment [1] (setting [2]) was 59.4%.
For the compound `Cc1cccc(NC(=O)NC2CN(C(=O)C(C)(C)C)c3ccc(C)cc3N(CC(=O)c3ccccc3C)C2=O)c1` (stereo not drawn) [Example 4, 1-[1-(2-toluoylmethyl)-2-oxo-5-pivaloyl-8-methyl-1,3,4,5-tetrahydro-2H-1,5-benzodiazepin-3-yl]-3-(3-methylphenyl)urea], at CCK-B receptors, the Ki was 1.11 nM.
The same measure, in the same setting: in the case of `Cc1ccccc1C(=O)CN1C(=O)C(NC(=O)Nc2cccc(CC(=O)O)c2)CN(C(=O)C(C)(C)C)c2ccccc21` (stereo not drawn) [Example 72, 3-[3-[1-(2-toluoylmethyl)-2-oxo-5-pivaloyl-1,3,4,5-tetrahydro-2H-1,5-benzodiazepin-3-yl]ureido]phenylacetic acid] it was 1.57 nM.
Take `Cc1ccc2c(c1)N(CC(=O)C(C)(C)C)C(=O)C(NC(=O)Nc1cccc(C(=O)O)c1)CN2C1CCCCC1` (stereo not drawn) [Example 118, 3-[3-(1-tert-butylcarbonylmethyl-2-oxo-5-cyclohexyl-8-methyl-1,3,4,5-tetrahydro-2H-1,5-benzodiazepin-3-yl)ureido]benzoic acid]: the inhibition in vivo at 30 mg/kg in experiment [1] (setting [2]) came to 88.3%.
For `Cc1ccccc1C(=O)CN1C(=O)C(NC(=O)Nc2cccc(C(=O)O)c2)CN(C(=O)C(C)(C)C)c2ccccc21` (single isomer, unassigned), the inhibitory constant (Ki) on CCK-B receptors worked out at 1.42 nM. For the same compound, the inhibition in vivo at 10 mg/kg in experiment [1] (Rattus norvegicus, 4 h, read-out: % Inhibition of acid output) came to 69.8%.
Consider `Cc1ccc2c(c1)N(CC(=O)c1ccco1)C(=O)C(NC(=O)Nc1cccc(C(=O)O)c1)CN2C(=O)C(C)(C)C` (stereo not drawn) [Example 114, 3-[3-[1-(furan-2-yl)carbonylmethyl-2-oxo-5-pivaloyl-8-methyl-1,3,4,5-tetrahydro-2H-1,5-benzodiazepin-3-yl]ureido]benzoic acid], for which the Ki at CCK-B receptors is 9.43 nM. Further, the inhibition in vivo at 30 mg/kg in experiment [1] (setting [2]) was 89.7%.
`COc1cccc(NC(=O)NC2CN(C3CCCCC3)c3ccccc3N(CC(=O)C(C)(C)C)C2=O)c1` (stereo not drawn) [Example 151, 1-(1-tert-butylcarbonylmethyl-2-oxo-5-cyclohexyl-1,3,4,5-tetrahydro-2H-1,5-benzodiazepin-3-yl)-3-(3-methoxyphenyl)urea]: the Ki at CCK-B receptors is 2.86 nM.
For the compound `Cc1ccc(NC(=O)N[C@@H]2CN(C3CCCCC3)c3ccccc3N(CC(=O)C(C)(C)C)C2=O)cc1C(=O)O` [Example 166, (R)-(-)-2-methyl-5-[3-(1-tert-butylcarbonylmethyl-2-oxo-5-cyclohexyl-1,3,4,5-tetrahydro-2H-1,5-benzodiazepin-3-yl)ureido]benzoic acid], the inhibition in vivo at 0.3 mg/kg in experiment [1] (0.3 mg/kg, rat, acid output from 1 to 4 hours after administration, pentagastrin 15 μg/kg/hr) was determined as 51.2%.
Turning to `CC(C)(C)C(=O)CN1C(=O)C(NC(=O)Nc2cccc(C(=O)NS(C)(=O)=O)c2)CN(c2ccccc2)c2ccccc21` (stereo not drawn) [Example 46, 1-(1-tert-butylcarbonylmethyl-2-oxo-5-phenyl-1,3,4,5-tetrahydro-2H-1,5-benzodiazepin-3-yl)-3-(3-methylsulfonylaminocarbonylphenyl)urea], the Ki on CCK-B receptors worked out at 0.7 nM.
In the case of `Cc1ccc2c(c1)N(CC(=O)c1ccccc1C)C(=O)C(NC(=O)Nc1cccc(C(=O)O)c1)CN2C(=O)c1ccco1` (stereo not drawn) [Example 113, 3-[3-[1-(2-toluoylmethyl)-2-oxo-5-(furan-2-ylcarbonyl)-8-methyl-1,3,4,5-tetrahydro-2H-1,5-benzodiazepin-3-yl]ureido]benzoic acid], the inhibition in vivo at 30 mg/kg in experiment [1] (setting [2]) was found to be 75.7%.
For the compound `CCC(C)(C)C(=O)N1CC(NC(=O)Nc2cccc(C(=O)O)c2)C(=O)N(CC(=O)c2ccccc2C)c2cc(C)ccc21` (stereo not drawn) [Example 93, 3-[3-[1-(2-toluoylmethyl)-2-oxo-5-(2,2-dimethylbutanoyl)-8-methyl-1,3,4,5-tetrahydro-2H-1,5-benzodiazepin-3-yl]ureido]benzoic acid], the Ki on CCK-B receptors worked out at 1.29 nM.
In experiment [1] (setting [2]), `Cc1ccc2c(c1)N(CC(=O)c1cccs1)C(=O)C(NC(=O)Nc1cccc(C(=O)O)c1)CN2C(=O)C(C)(C)C` (stereo not drawn) [Example 89, 3-[3-[1-(2-Thenoylmethyl)-2-oxo-5-pivaloyl-8-methyl-1,3,4,5-tetrahydro-2H-1,5-benzodiazepin-3-yl]ureido]benzoic acid] displayed an inhibition in vivo at 30 mg/kg of 87.8%.
In the case of `CC(C)(C)C(=O)CN1C(=O)C(NC(=O)Nc2cccc(OCC(=O)O)c2)CN(c2ccccc2)c2ccccc21` (stereo not drawn) [Example 35, 3-[3-(1-tert-butylcarbonylmethyl-2-oxo-5-phenyl-1,3,4,5-tetrahydro-2H-1,5-benzodiazepin-3-yl)ureido]phenoxyacetic acid], on CCK-B receptors, the Ki was 0.61 nM.
Still for that read-out and setting: in the case of `CN(C(=O)CN1C(=O)C(NC(=O)Nc2cccc(C(=O)NS(C)(=O)=O)c2)CN(c2ccccc2)c2ccccc21)c1ccccc1` (stereo not drawn) [Example 15, 1-[1-(N-phenyl-N-methyl)carbamoylmethyl-2-oxo-5-phenyl-1,3,4,5-tetrahydro-2H-1,5-benzodiazepin-3-yl]-3-(3-methylsulfonylaminocarbonylphenyl)urea] it was 0.99 nM; in that of `CC(C)(C)C(=O)CN1C(=O)[C@H](NC(=O)Nc2cccc(C(=O)O)c2)CN(C[C@@H]2CC[C@H]3C[C@@H]2C3(C)C)c2ccccc21` [Example 157, 3-[3-[(3R)-1-tert-butylcarbonylmethyl-2-oxo-5-[(1S, 2R, 5S)-pinan-10-yl]-1,3,4,5-tetrahydro-2H-1,5-benzodiazepin-3-yl]ureido]benzoic acid], 1.97 nM.
For `Cc1ccc2c(c1)N(CC(=O)c1ccccc1C)C(=O)C(NC(=O)Nc1cccc(C(=O)O)c1)CN2C(=O)c1ccccn1` (stereo not drawn) [Example 105, 3-[3-[1-(2-toluoylmethyl)-2-oxo-5-(2-pyridylcarbonyl)-8-methyl-1,3,4,5-tetrahydro-2H-1,5-benzodiazepin-3-yl]ureido]benzoic acid], the Ki at CCK-B receptors was determined as 1.33 nM.
Same read-out and setting: in the case of `COC(=O)N1CC(NC(=O)Nc2cccc(C)c2)C(=O)N(CC(=O)c2ccccc2C)c2ccccc21` (stereo not drawn) [Example 49, 1-[1-(2-toluoylmethyl)-2-oxo-5-methoxycarbonyl-1,3,4,5-tetrahydro-2H-1,5-benzodiazepin-3-yl]-3-(3-methylphenyl)urea] it was 5.02 nM; in that of `Cc1ccccc1C(=O)CN1C(=O)C(NC(=O)Nc2cccc(-c3noc(=O)[nH]3)c2)CN(C(=O)C(C)(C)C)c2ccccc21` (stereo not drawn) [Example 62, 1-[1-(2-toluoylmethyl)-2-oxo-5-pivaloyl-1,3,4,5-tetrahydro-2H-1,5-benzodiazepin-3-yl]-3-[3-(5-oxo-4H-1,2,4-oxadiazolin-3-yl)phenyl]urea], 0.79 nM; in that of `CC(C)(C)C(=O)CN1C(=O)[C@H](NC(=O)Nc2cccc(OC(C)(C)C(=O)O)c2)CN(C2CCCCC2)c2ccccc21` [Example 125, (R)-(-)-2-methyl-2-[3-[3-(1-tert-butylcarbonylmethyl-2-oxo-5-cyclohexyl-1,3,4,5-tetrahydro-2H-1,5-benzodiazepin-3-yl)ureido]phenoxy]propionic acid], 0.43 nM.
Turning to `CC(C)(C)OC(=O)CN1C(=O)C(NC(=O)Nc2cccc(SCC(=O)O)c2)CN(c2ccccc2)c2ccccc21` (stereo not drawn) [Example 81, 3-[3-[1-tert-butoxycarbonylmethyl-2-oxo-5-phenyl-1,3,4,5-tetrahydro-2H-1,5-benzodiazepin-3-yl]ureido]phenylthioacetic acid], at CCK-B receptors, the Ki is 0.56 nM.
Same read-out and setting: in the case of `Cc1ccccc1C(=O)CN1C(=O)C(NC(=O)Nc2cccc(SCC(=O)O)c2)CN(C(=O)C(C)(C)C)c2ccccc21` (stereo not drawn) [Example 78, 3-[3-[1-(2-toluoylmethyl)-2-oxo-5-pivaloyl-1,3,4,5-tetrahydro-2H-1,5-benzodiazepin-3-yl]ureido]phenylthioacetic acid] it was 0.18 nM.
Regarding `CC(C)(C)OC(=O)CN1C(=O)C(NC(=O)Nc2cccc(C(=O)NS(C)(=O)=O)c2)CN(c2ccccc2)c2ccccc21` (stereo not drawn) [Example 16, 1-(1-tert-butoxycarbonylmethyl-2-oxo-5-phenyl-1,3,4,5-tetrahydro-2H-1,5-benzodiazepin-3-yl)-3-(3-methylsulfonylaminocarbonylphenyl)urea], the Ki on CCK-B receptors was determined as 2.14 nM.
Still for that read-out and setting: in the case of `Cc1cccc(NC(=O)NC2CN(c3ccccc3)c3ccccc3N(CC(=O)C(C)(C)C)C2=O)c1` (stereo not drawn) [Example 71, 1-(1-tert-butylcarbonylmethyl-2-oxo-5-phenyl-1,3,4,5-tetrahydro-2H-1,5-benzodiazepin-3-yl)-3-(3-methylphenyl)urea] it was 2.88 nM.
The same measure, in the same setting: in the case of `Cc1ccccc1C(=O)CN1C(=O)C(NC(=O)Nc2cccc(-c3nnn[nH]3)c2)CN(C(=O)C(C)(C)C)c2ccccc21` (stereo not drawn) [Example 61, 1-[1-(2-toluoylmethyl)-2-oxo-5-pivaloyl-1,3,4,5-tetrahydro-2H-1,5-benzodiazepin-3-yl]-3-[3-(tetrazol-5-yl)phenyl]urea] it was 0.98 nM.
